From patent US10882854B2, “Heterocyclic compounds and use thereof” (National Health Research Institutes, priority 2017, dated 2021) come the findings set out here.

The target in this assay is T1, human CXCR4 (Homo sapiens, UniProt P61073).
T1 construct: expressed in transfected cells; host or cells: HEK293 cells (membranes)
Briefly: Inhibition of 125I-CXCL12 radioligand binding, membranes of human CXCR4-transfected HEK293 cells. The note with it: 0.16 nM 125I-CXCL12, 60 min at 30 °C, read-out: concentration required to inhibit binding of 125I-CXCL12 to CXCR4 by 50% (IC50). The procedure: Binding competition between the compounds of Formula (I) and human CXCL12 was assessed using a radioligand binding assay as described below.
Membranes (2-4 μg) prepared from human CXCR4-transfected HEK293 cells in 40 μL of assay buffer (50 mM HEPES-NaOH, pH 7.4, 100 mM NaCl, 5 mM MgCl2, 1 mM CaCl2, 0.5% bovine serum albumin) were incubated with 20 μL of radio-labeled ^125I-CXCL12 (0.16 nM) and 20 μL of a test compound in an assay plate (Costar Corning, Cambridge, Mass.). After 60 minutes at 30° C., the incubation was terminated by transferring the resulting reaction mixture to a 96-well GF/B filter plate (Millipore Corp., Billerica, Mass.) and filtered via a manifold. The plate was washed with 100 μL of ice-cold wash buffer (50 mM HEPES-NaOH, pH 7.4, 100 mM NaCl) four times. The radioactivity bound to the filter was measured by Topcount (PerkinElmer Inc., Waltham, Mass.).

T1 sequence (P61073 whole entry): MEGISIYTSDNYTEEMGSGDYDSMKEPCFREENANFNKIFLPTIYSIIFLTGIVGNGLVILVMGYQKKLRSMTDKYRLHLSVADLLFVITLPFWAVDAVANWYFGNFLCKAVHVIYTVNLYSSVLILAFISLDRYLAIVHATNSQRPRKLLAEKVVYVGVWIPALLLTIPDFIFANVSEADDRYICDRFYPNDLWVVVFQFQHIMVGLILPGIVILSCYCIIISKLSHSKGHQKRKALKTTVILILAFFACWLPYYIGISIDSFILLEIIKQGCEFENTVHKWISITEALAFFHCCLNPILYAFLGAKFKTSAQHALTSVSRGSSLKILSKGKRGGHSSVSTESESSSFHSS

For the molecule `Cc1cnc(NCc2nnn(CCCNCCCNC3CCCCC3)n2)nc1NC1CCNCC1` [Compound 75], the IC50 was less than 50 nM.
Take `N[C@@H](CCC(=O)N1CCC(Nc2nc(NCc3ncn(CCCNCCCNC4CCCCC4)n3)nc3ccccc23)CC1)C(=O)O` [Compound 77]: the IC50 was in the range of 100 to 1000 nM.
With `CCOC(=O)CNCCC(=O)N1CCC(Nc2cc(C)nc(NCc3cc(CCCNCCCNC4CCCCC4)n[nH]3)n2)CC1` [Compound 82] the figure was 50 to 100 nM.
For `N[C@@H](CCC(=O)N1CCC(Nc2nc(NCc3nc(CNCCCNC4CCCCC4)c[nH]3)nc3ccccc23)CC1)C(=O)O` [Compound 79] the value was 100 to 1000 nM; for `c1cc2c(NC3CCNCC3)nc(NCc3nnn(CCCNCCCNC4CCCCC4)n3)nc2s1` [Compound 56], 100 to 1000 nM; for `N[C@@H](CCC(=O)NCCN1CCC(Nc2nc(NCc3nnc(CCCNCCCNC4CCCCC4)o3)nc3ccccc23)CC1)C(=O)NCCP(=O)(O)O` [Compound 51], 100 to 1000 nM.
Take `C1=NC(CNc2nc(NC3CCNCC3)c3ccccc3n2)=NC1CNCCCNC1CCCCC1` (stereo not shown) [Compound 72]: the IC50 fell in the range of 50 to 100 nM.
With `CCc1cc(NC2CCN(C(=O)CCNCC(=O)O)CC2)nc(NCc2nnc(CCCNCCCNC3CCCCC3)s2)n1` [Compound 70] the figure was 100 to 1000 nM; with `O=C(O)[C@H]1CCCN1CCC(=O)N1CCC(Nc2nc(NCc3nnn(CCCNCCCNC4CCCCC4)n3)nc3ccccc23)CC1` [Compound 78], 50 to 100 nM.
For `CCc1cc(NC2CCNCC2)nc(NCc2nnc(CCCNCCCNC3CCCCC3)s2)n1` [Compound 25] the value was less than 50 nM; for `FC(F)(F)c1cnc(NCc2nnn(CCCNCCCNC3CCCCC3)n2)nc1NC1CCNCC1` [Compound 74], 100 to 1000 nM; for `CCc1cc(NC2CCN(C(=O)CCCNCC(=O)O)CC2)nc(NCc2nnn(CCCNCCCNC3CCCCC3)n2)n1` [Compound 64], 100 to 1000 nM.
For `Cc1cnc(NCc2nnn(CCCNCCCNC3CCCCC3)n2)nc1NC1CCN(C(=O)CCNCC(=O)O)CC1` [Compound 85] the value was 100 to 1000 nM.
Turning to `CCc1cc(NC2CCN(C(=O)CC[C@H](N)C(=O)O)CC2)nc(NCc2nnc(CCCNCCCNC3CCCCC3)[nH]2)n1` [Compound 66], the IC50 is 50 to 100 nM.
Turning to `Cc1cc(NC2CCNCC2)nc(NCc2ncn(CCCNCCCNC3CCCCC3)n2)n1` [Compound 71], the IC50 is 100 to 1000 nM.
Turning to `N[C@@H](CCC(=O)N1CCC(Nc2nc(NCc3cc(CCCNCCCNC4CCCCC4)n[nH]3)nc3ccccc23)CC1)C(=O)O` [Compound 76], the IC50 lay in the range of 50 to 100 nM.
As for `O=C(O)CNCCC(=O)N1CCC(Nc2nc(NCc3nnnn3CCCNCCCNC3CCCCC3)nc3ccccc23)CC1` [Compound 68], the IC50 is 100 to 1000 nM.
For `c1cc(NC2CCNCC2)nc(NCc2nnn(CCCNCCCNC3CCCCC3)n2)n1` [Compound 58], the IC50 lay in the range of 50 to 100 nM.
For `c1ccc2c(N3CCNCC3)nc(NCc3nnn(CCCNCCCNC4CCCCC4)n3)nc2c1` [Compound 12] the value was less than 50 nM.
Consider `CCc1cc(NC2CCN(C(=O)CCNCC(=O)O)CC2)nc(NCc2nnn(CCCNCCCNC3CCCCC3)n2)n1` [Compound 63], for which the IC50 was in the range of 100 to 1000 nM.
With `CCc1cc(NC2CCN(C(=O)CC[C@H](N)C(=O)O)CC2)nc(NCc2nnn(CCCNCCCNC3CCCCC3)n2)n1` [Compound 65] the figure was 100 to 1000 nM; with `N[C@@H](CCC(=O)N1CCC(Nc2nc(NCCc3cn(CCCCNCCCNC4CCCCC4)cn3)nc3ccccc23)CC1)C(=O)O` [Compound 36], 100 to 1000 nM; with `N[C@@H](CCC(=O)N1CCC(Nc2nc(NCc3nnnn3CCCNCCCNC3CCCCC3)nc3ccccc23)CC1)C(=O)O` [Compound 67], 100 to 1000 nM.
With `c1ccc2c(NC3CCNCC3)nc(NCc3ncn(CCCNCCCNC4CCCCC4)n3)nc2c1` [Compound 11] the figure was 50 to 100 nM; with `CCc1cc(NC2CCN(C(=O)CC[C@H](N)C(=O)O)CC2)nc(NCc2nnc(CCCNCCCNC3CCCCC3)s2)n1` [Compound 69], 100 to 1000 nM; with `Nc1cc(N2CCNCC2)nc(NCc2nnn(CCCNCCCNC3CCCCC3)n2)n1` [Compound 57], 100 to 1000 nM.
For `CC(C)CC(NCCC(=O)N1CCC(Nc2nc(NCc3nnn(CCCNCCCNC4CCCCC4)n3)nc3ccccc23)CC1)C(=O)O` (stereo not shown) [Compound 80] the value was 100 to 1000 nM; for `CCc1cc(NC2CCNCC2)nc(NCc2nnc(CCCNCCCNC3CCCCC3)[nH]2)n1` [Compound 27], 50 to 100 nM; for `Cc1cc(NC2CCN(C(=O)CCNCC(=O)O)CC2)nc(NCc2ncn(CCCNCCCNC3CCCCC3)n2)n1` [Compound 81], 100 to 1000 nM.
With `c1nc2c(NCc3nnn(CCCNCCCNC4CCCCC4)n3)nc(N3CCNCC3)nc2[nH]1` [Compound 55], the IC50 is 100 to 1000 nM.
With `Cc1cnc(NCc2nnn(CCCNCCCNC3CCCCC3)n2)nc1NC1CCN(C(=O)CC[C@H](N)C(=O)O)CC1` [Compound 86] the figure was 100 to 1000 nM; with `Cc1cc(NC2CCN(C(=O)CCNCC(=O)O)CC2)nc(NCc2noc(CCCNCCCNC3CCCCC3)n2)n1` [Compound 43], 50 to 100 nM.
For `Cc1cc(NC2CCNCC2)nc(NCc2cc(CCCNCCCNC3CCCCC3)[nH]n2)n1` [Compound 28] the value was less than 50 nM; for `N[C@@H](CCC(=O)NCCN1CCC(Nc2nc(NCc3nnnn3CCCNCCCNC3CCCCC3)nc3ccccc23)CC1)C(=O)NCCP(=O)(O)O` [Compound 52], 100 to 1000 nM.
With `Cc1cc(NC2CCNCC2)nc(NCc2nc(CNCCCNC3CCCCC3)c[nH]2)n1` [Compound 73] the figure was 50 to 100 nM; with `Cc1cc(NC2CCN(C(=O)CCNCC(=O)O)CC2)nc(NCc2nc(CNCCCNC3CCCCC3)c[nH]2)n1` [Compound 83], 100 to 1000 nM; with `N[C@@H](CCC(=O)N1CCC(Nc2nc(NCCc3cn(CCCCNCCCNC4CCCCC4)cn3)nc3ccccc23)CC1)C(=O)OCc1ccccc1` [Compound 60], 100 to 1000 nM.
`N[C@@H](CCC(=O)NCCN1CCC(Nc2nc(NCc3nc(CNCCCNC4CCCCC4)cs3)nc3ccccc23)CC1)C(=O)NCCP(=O)(O)O` [Compound 84]: the IC50 was 100 to 1000 nM.
On to `c1cnc2nc(NCc3nnn(CCCNCCCNC4CCCCC4)n3)nc(NC3CCNCC3)c2c1` [Compound 53], for which the IC50 was 100 to 1000 nM.
With `Cc1cc(NC2CCNCC2)nc(NCc2noc(CCCNCCCNC3CCCCC3)n2)n1` [Compound 19], the IC50 is less than 50 nM.
For `Cc1cc(NC2CCN(C(=O)CCNCC(=O)O)CC2)nc(NCc2nnc(CCCNCCCNC3CCCCC3)o2)n1` [Compound 44] the value was 100 to 1000 nM; for `O=C(O)[C@@H](O)CCC(=O)N1CCC(Nc2nc(NCc3nc(CCCNCCCNC4CCCCC4)co3)nc3ccccc23)CC1` [Compound 54], 100 to 1000 nM; for `c1ccc2c(NC3CCNCC3)nc(NCc3cc(CCCNCCCNC4CCCCC4)[nH]n3)nc2c1` [Compound 9], less than 50 nM.
